The NIST ThermoML archive (doi:10.1016/j.jct.2009.01.014)
“And” between values parts separate entries of the source, which are not always exact repeats. Equal entries are not always repeated.

Assay: molar heat capacity at constant pressure
Conditions: 101.33 kPa, Crystal 1, Vacuum adiabatic calorimetry

[Al+3].[Al+3].[Co+2].[O-2].[O-2].[O-2].[O-2] [aluminium cobalt oxide]
Conditions | molar heat capacity at constant pressure
146.83 K | 57.16 J/K/mol
147.05 K | 57.28 J/K/mol
149.96 K | 58.88 J/K/mol
150 K | 58.9 J/K/mol
150.67 K | 59.3 J/K/mol
152.88 K | 60.51 J/K/mol
154.53 K | 61.45 J/K/mol
155.79 K | 62.12 J/K/mol
158.38 K | 63.57 J/K/mol
158.7 K | 63.68 J/K/mol
160 K | 64.37 J/K/mol
161.62 K | 65.3 J/K/mol
162.25 K | 65.67 J/K/mol
164.55 K | 66.89 J/K/mol
166.11 K | 67.74 J/K/mol
167.47 K | 68.46 J/K/mol
169.98 K | 69.8 J/K/mol
170 K | 69.81 J/K/mol
170.39 K | 70.02 J/K/mol
173.28 K | 71.53 J/K/mol
173.86 K | 71.81 J/K/mol
176.14 K | 73.02 J/K/mol
177.74 K | 73.82 J/K/mol
178.97 K | 74.47 J/K/mol
180 K | 74.99 J/K/mol
181.6 K | 75.79 J/K/mol
181.77 K | 75.91 J/K/mol
184.55 K | 77.27 J/K/mol
185.41 K | 77.67 J/K/mol
187.3 K | 78.65 J/K/mol
189.19 K | 79.56 J/K/mol
190 K | 79.97 J/K/mol
190.03 K | 79.99 J/K/mol
192.74 K | 81.28 J/K/mol
192.91 K | 81.34 J/K/mol
195.43 K | 82.61 J/K/mol
196.6 K | 83.11 J/K/mol
198.09 K | 83.83 J/K/mol
200 K | 84.73 J/K/mol
200.24 K | 84.85 J/K/mol
200.74 K | 85.08 J/K/mol
203.36 K | 86.29 J/K/mol
203.85 K | 86.5 J/K/mol
205.97 K | 87.49 J/K/mol
207.42 K | 88.12 J/K/mol
208.56 K | 88.63 J/K/mol
210 K | 89.28 J/K/mol
210.96 K | 89.71 J/K/mol
211.13 K | 89.82 J/K/mol
213.68 K | 90.9 J/K/mol
214.47 K | 91.27 J/K/mol
216.22 K | 92.07 J/K/mol
217.95 K | 92.81 J/K/mol
218.74 K | 93.14 J/K/mol
220 K | 93.68 J/K/mol
221.25 K | 94.2 J/K/mol
221.4 K | 94.18 J/K/mol
223.74 K | 95.23 J/K/mol
224.82 K | 95.65 J/K/mol
226.22 K | 96.27 J/K/mol
228.21 K | 97.04 J/K/mol
228.69 K | 97.25 J/K/mol
230 K | 97.8 J/K/mol
231.14 K | 98.26 J/K/mol
231.58 K | 98.37 J/K/mol
233.58 K | 99.23 J/K/mol
234.92 K | 99.71 J/K/mol
236.01 K | 100.16 J/K/mol
238.24 K | 101.02 J/K/mol
238.42 K | 101.09 J/K/mol
240 K | 101.73 J/K/mol
240.83 K | 102.05 J/K/mol
241.54 K | 102.25 J/K/mol
243.22 K | 102.92 J/K/mol
244.81 K | 103.49 J/K/mol
245.59 K | 103.81 J/K/mol
247.96 K | 104.73 J/K/mol
248.06 K | 104.72 J/K/mol
250 K | 105.45 J/K/mol
250.32 K | 105.57 J/K/mol
251.29 K | 105.92 J/K/mol
252.67 K | 106.55 J/K/mol
254.51 K | 106.81 J/K/mol
255.02 K | 106.86 J/K/mol
257.35 K | 107.86 J/K/mol
257.71 K | 108 J/K/mol
259.68 K | 108.69 J/K/mol
260 K | 108.81 J/K/mol
260.89 K | 109.14 J/K/mol
261.99 K | 109.47 J/K/mol
264.06 K | 110.17 J/K/mol
264.3 K | 110.3 J/K/mol
266.6 K | 111.11 J/K/mol
267.21 K | 111.27 J/K/mol
268.89 K | 111.88 J/K/mol
270 K | 112.21 J/K/mol
270.34 K | 112.32 J/K/mol
271.18 K | 112.63 J/K/mol
273.45 K | 113.32 J/K/mol and 113.36 J/K/mol
275.72 K | 114.12 J/K/mol
276.55 K | 114.32 J/K/mol
277.98 K | 114.86 J/K/mol
279.64 K | 115.3 J/K/mol
280 K | 115.49 J/K/mol
280.23 K | 115.61 J/K/mol
282.47 K | 116.23 J/K/mol
282.71 K | 116.25 J/K/mol
284.71 K | 117.01 J/K/mol
285.76 K | 117.27 J/K/mol
286.94 K | 117.64 J/K/mol
288.8 K | 118.11 J/K/mol
289.16 K | 118.27 J/K/mol
290 K | 118.56 J/K/mol
291.38 K | 118.88 J/K/mol
291.83 K | 118.87 J/K/mol
293.59 K | 119.39 J/K/mol
294.84 K | 119.71 J/K/mol
295.8 K | 120.14 J/K/mol
297.85 K | 120.6 J/K/mol
298 K | 120.75 J/K/mol
298.15 K | 120.8 J/K/mol
300 K | 121.29 J/K/mol
300.19 K | 121.32 J/K/mol
300.84 K | 121.4 J/K/mol
302.38 K | 121.76 J/K/mol
304.56 K | 122.44 J/K/mol
306.74 K | 123.1 J/K/mol
308.91 K | 123.82 J/K/mol
310 K | 124.03 J/K/mol
311.08 K | 124.21 J/K/mol
314.58 K | 125.39 J/K/mol
316.31 K | 125.57 J/K/mol
318.27 K | 126.1 J/K/mol
320 K | 126.56 J/K/mol
320.27 K | 126.63 J/K/mol
322.26 K | 127.06 J/K/mol
324.24 K | 127.71 J/K/mol
326.23 K | 128.15 J/K/mol
328.22 K | 128.71 J/K/mol
330 K | 129.18 J/K/mol
330.21 K | 129.23 J/K/mol
332.21 K | 129.58 J/K/mol
334.2 K | 130.14 J/K/mol
336.19 K | 130.48 J/K/mol
338.18 K | 131.04 J/K/mol
340 K | 131.5 J/K/mol
340.18 K | 131.54 J/K/mol
342.17 K | 132 J/K/mol
344.16 K | 132.51 J/K/mol
346.15 K | 132.95 J/K/mol
348.15 K | 133.41 J/K/mol
350 K | 133.79 J/K/mol
350.14 K | 133.82 J/K/mol
352.14 K | 134.31 J/K/mol
354.14 K | 134.84 J/K/mol
356.13 K | 135.27 J/K/mol
358.13 K | 135.71 J/K/mol
360 K | 136.1 J/K/mol
360.13 K | 136.12 J/K/mol
362.13 K | 136.47 J/K/mol
364.13 K | 136.92 J/K/mol
366.13 K | 137.31 J/K/mol
368.13 K | 137.72 J/K/mol
370 K | 138.26 J/K/mol
370.14 K | 138.29 J/K/mol
372.14 K | 138.51 J/K/mol
374.14 K | 138.93 J/K/mol
376.14 K | 139.33 J/K/mol
378.15 K | 139.67 J/K/mol
380 K | 140.09 J/K/mol
380.15 K | 140.12 J/K/mol
382.16 K | 140.49 J/K/mol
384.17 K | 140.86 J/K/mol
386.17 K | 141.18 J/K/mol
388.18 K | 141.53 J/K/mol
390 K | 141.96 J/K/mol
390.19 K | 142 J/K/mol
392.2 K | 142.2 J/K/mol
394.22 K | 142.53 J/K/mol
396.23 K | 142.78 J/K/mol
398.24 K | 143.19 J/K/mol
400.25 K | 143.52 J/K/mol
